Like-named read-outs stand apart in the source and are kept apart here.
Tests used:
[1] = system: human cerebrovascular pericytes (HBVP); test: MTT assay on human neovascular cells; type: cell-based
[2] = system: MNNG/HOS osteosarcoma cells; test: MTT assay on osteosarcoma cells; type: cell-based; conditions: 48 hours, read-out: Inhibitory activity (IC50) MNNG/HOS
Method: (§1) Logarithmic osteosarcoma cells were inoculated into a 96-well plate with a cell concentration of 1,500 cell/well for 6 hours by using MTT assay, and each well was filled with 200 μL of cell suspension. […] The samples were cultured in an incubator for 48 hours (37° C., 5% CO2), and 20 v L of MTT (3-(4,5-dimethylthiazole-2)-2,5-diphenyltetrazole) were added into each hole. After continuous culture for 4 hours, the culture solution was discarded by suction, and 200 v L of DMSO were added to each well. […] Calculation method of IC50 value: the IC50 values of the samples were calculated by curve fitting with GraphPad Prism software.

[3] = system: SAOS-2 osteosarcoma cells; test: MTT assay on osteosarcoma cells; type: cell-based; conditions: Homo sapiens, 48 hours, read-out: Inhibitory activity (IC50) SAOS-2
Method: as §1

[4] = system: U2OS osteosarcoma cells; test: MTT assay on osteosarcoma cells; type: cell-based; conditions: Homo sapiens, 48 hours, read-out: Inhibitory activity (IC50) U2OS
Method: as §1

[5] = system: MG-63 osteosarcoma cells; test: MTT assay on osteosarcoma cells; type: cell-based; conditions: Homo sapiens, 48 hours, read-out: Inhibitory activity (IC50) MG-63
Method: as §1

[6] = system: PDGFR signaling pathway related proteins in MNNG cells; test: Western Blot of PDGFR signaling pathway protein phosphorylation; type: cell-based; conditions: 0.1, 0.2 and 0.4 uM, 48 hours
Method: (§2) After pretreating the osteosarcoma cell line with the compound for 48 hours, the culture medium was sucked off, washed with PBS for 3 times, and the total protein was extracted after lysis. A phosphorylation level of the PDGFR signaling pathway related proteins was detected by Western Blot.

[7] = system: PDGFR signaling pathway related proteins in MG63 cells; test: as above; type: cell-based; conditions: 0.1, 0.2 and 0.4 uM, 48 hours
Method: as §2

[8] = target: FLT1 (Homo sapiens (Human), UniProt P17948); test: Kinase selectivity test; type: biochemical; conditions: 100 nM
Method: (§3) The method adopted in the test was Caliper Mobility Shift Assay, which was a detection platform based on the mobility detection technology of microfluidic chip technology. Test steps: 1.25× kinase reaction buffer (62.5 mmol/L HEPES, pH 7.5; 0.001875% Brij-35; 12.5 mmol/L MgCl2; 2.5 mM DTT) and kinase reaction stop solution (100 mmol/L HEPES, pH 7.5; 0.015% Brij-35; 0.2% Coating Reagent #3) were configured. […] Collected data was tested on Caliper to yield that inhibition ratio to kinase activity=(max−conversion)/(max−min)×100. “max” was DMSO control without adding compound, and “min” was low control. When IC50 was determined, each sample was provided with 10 dilutions, each with 2 multiple holes, and repeated for 3 times.
(§4) According to the above-mentioned method for measuring kinase inhibitory activity, the inhibitory activity of the active compounds on other multiple kinases was measured to characterize the kinase selectivity of active inhibitors.

[9] = target: EGFR T790M (Homo sapiens (Human), UniProt P00533, T790M); test: Kinase selectivity test; type: biochemical; conditions: 100 nM
Method: as §3, §4

[10] = target: EGFR L858R/T790M/C797S (Homo sapiens (Human), UniProt P00533, C797S/L858R/T790M); test: Kinase selectivity test; type: biochemical; conditions: 100 nM
Method: as §3, §4

[11] = target: EGFR (Homo sapiens (Human), UniProt P00533); test: Kinase selectivity test; type: biochemical; conditions: 100 nM
Method: as §3, §4

[12] = target: BTK (Homo sapiens (Human), UniProt Q06187); test: Kinase selectivity test; type: biochemical; conditions: 100 nM
Method: as §3, §4

[13] = target: EGFR L858R (Homo sapiens (Human), UniProt P00533, L858R); test: Kinase selectivity test; type: biochemical; conditions: 100 nM
Method: as §3, §4

[14] = target: SRC (Homo sapiens (Human), UniProt P12931); test: Kinase selectivity test; type: biochemical; conditions: 100 nM
Method: as §3, §4

[15] = target: FGFR1 (Homo sapiens (Human), UniProt P11362); test: Kinase selectivity test; type: biochemical; conditions: 100 nM
Method: as §3, §4

[16] = target: KDR (Homo sapiens (Human), UniProt P35968); test: Kinase selectivity test; type: biochemical; conditions: 100 nM
Method: as §3, §4

[17] = target: FGFR3 (Homo sapiens (Human), UniProt P22607); test: Kinase selectivity test; type: biochemical; conditions: 100 nM
Method: as §3, §4

[18] = target: EGFR/T790M/L858R (Homo sapiens (Human), UniProt P00533, L858R/T790M); test: Kinase selectivity test; type: biochemical; conditions: 100 nM
Method: as §3, §4

Sequence of KDR (P35968 20-1356, species assumed): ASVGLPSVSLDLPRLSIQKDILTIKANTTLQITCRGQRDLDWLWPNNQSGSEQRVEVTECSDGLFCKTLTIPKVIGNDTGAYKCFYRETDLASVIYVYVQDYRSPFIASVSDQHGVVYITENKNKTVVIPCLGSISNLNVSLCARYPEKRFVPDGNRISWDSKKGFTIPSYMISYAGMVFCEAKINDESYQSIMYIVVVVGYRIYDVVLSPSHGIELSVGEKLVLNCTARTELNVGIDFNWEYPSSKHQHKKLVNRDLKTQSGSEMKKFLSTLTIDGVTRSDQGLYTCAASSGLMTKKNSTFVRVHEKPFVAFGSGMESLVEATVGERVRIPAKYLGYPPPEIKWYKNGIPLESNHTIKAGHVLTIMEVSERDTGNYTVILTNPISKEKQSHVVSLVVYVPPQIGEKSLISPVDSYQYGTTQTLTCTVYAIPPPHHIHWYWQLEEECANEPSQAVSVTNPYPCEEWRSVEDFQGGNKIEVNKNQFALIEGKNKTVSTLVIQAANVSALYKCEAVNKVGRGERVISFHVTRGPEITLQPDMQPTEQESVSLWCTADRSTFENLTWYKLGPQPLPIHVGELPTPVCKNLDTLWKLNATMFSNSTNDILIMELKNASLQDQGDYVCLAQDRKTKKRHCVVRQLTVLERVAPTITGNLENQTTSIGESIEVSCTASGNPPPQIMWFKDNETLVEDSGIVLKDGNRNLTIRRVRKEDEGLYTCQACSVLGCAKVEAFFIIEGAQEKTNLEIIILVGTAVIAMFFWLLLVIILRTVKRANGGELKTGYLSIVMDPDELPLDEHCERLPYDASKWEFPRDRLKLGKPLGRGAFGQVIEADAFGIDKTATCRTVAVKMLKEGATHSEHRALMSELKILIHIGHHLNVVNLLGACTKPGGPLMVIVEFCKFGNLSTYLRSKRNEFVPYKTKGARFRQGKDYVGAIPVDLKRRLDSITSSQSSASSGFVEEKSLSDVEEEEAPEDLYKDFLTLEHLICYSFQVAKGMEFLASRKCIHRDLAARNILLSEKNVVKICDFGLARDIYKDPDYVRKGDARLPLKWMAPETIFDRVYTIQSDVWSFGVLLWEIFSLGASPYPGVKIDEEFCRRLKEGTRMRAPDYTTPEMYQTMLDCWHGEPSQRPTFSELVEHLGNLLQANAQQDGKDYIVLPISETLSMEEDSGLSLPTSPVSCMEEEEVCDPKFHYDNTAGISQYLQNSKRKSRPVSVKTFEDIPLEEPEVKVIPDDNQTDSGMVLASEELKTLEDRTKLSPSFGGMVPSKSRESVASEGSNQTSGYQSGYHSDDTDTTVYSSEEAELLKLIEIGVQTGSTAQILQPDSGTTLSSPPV
Sequence of EGFR L858R/T790M/C797S (P00533 25-1210 T790M/C797S/L858R): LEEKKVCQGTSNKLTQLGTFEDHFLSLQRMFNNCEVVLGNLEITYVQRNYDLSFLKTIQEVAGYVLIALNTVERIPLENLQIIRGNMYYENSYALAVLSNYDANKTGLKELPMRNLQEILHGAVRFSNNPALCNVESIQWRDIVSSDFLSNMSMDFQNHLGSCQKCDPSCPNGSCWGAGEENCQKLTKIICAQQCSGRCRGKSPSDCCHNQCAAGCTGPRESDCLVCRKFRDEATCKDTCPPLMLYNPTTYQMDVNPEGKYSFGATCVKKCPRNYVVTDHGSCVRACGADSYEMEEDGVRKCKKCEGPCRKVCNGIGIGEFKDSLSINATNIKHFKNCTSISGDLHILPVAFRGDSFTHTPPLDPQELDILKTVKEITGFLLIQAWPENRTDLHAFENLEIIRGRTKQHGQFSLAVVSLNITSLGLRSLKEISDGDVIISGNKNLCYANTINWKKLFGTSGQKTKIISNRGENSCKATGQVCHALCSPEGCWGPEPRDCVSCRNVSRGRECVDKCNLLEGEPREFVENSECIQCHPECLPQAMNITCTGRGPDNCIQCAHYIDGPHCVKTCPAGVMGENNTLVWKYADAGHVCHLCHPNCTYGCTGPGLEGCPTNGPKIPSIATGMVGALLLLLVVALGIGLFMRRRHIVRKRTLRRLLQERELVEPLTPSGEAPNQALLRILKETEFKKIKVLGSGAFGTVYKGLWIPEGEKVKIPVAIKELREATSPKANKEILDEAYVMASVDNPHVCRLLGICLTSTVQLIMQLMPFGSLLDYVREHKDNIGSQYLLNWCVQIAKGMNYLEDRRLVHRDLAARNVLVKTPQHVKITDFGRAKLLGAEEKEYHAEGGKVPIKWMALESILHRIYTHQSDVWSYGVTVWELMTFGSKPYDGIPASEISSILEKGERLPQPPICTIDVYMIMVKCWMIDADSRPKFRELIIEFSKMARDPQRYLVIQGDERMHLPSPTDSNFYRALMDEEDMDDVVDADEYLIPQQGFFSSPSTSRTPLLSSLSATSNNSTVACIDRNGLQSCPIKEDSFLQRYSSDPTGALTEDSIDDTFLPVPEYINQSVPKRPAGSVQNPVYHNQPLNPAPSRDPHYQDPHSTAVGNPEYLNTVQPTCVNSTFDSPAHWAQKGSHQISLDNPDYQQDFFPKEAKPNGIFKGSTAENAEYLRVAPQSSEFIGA
Sequence of FGFR3 (P22607 23-806, species assumed): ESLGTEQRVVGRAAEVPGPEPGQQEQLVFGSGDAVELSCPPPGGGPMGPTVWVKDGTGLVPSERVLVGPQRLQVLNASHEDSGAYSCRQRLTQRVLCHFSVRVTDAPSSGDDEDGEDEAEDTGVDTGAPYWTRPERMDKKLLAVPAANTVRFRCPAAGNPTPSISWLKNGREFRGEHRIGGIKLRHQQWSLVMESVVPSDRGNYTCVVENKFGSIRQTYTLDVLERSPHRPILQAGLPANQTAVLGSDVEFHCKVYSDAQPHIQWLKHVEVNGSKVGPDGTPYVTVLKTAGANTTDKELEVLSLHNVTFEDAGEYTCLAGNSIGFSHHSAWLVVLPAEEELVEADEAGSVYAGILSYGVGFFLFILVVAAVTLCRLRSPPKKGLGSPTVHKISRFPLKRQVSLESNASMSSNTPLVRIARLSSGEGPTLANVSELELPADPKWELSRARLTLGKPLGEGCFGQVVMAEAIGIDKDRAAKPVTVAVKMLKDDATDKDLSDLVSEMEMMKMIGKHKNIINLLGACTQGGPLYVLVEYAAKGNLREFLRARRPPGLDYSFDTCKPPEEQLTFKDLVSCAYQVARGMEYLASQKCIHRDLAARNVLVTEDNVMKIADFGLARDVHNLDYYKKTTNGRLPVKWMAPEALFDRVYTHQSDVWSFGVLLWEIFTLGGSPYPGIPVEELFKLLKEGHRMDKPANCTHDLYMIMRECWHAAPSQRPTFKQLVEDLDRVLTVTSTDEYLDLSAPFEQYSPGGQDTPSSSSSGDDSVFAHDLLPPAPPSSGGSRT
Sequence of EGFR (P00533 25-1210): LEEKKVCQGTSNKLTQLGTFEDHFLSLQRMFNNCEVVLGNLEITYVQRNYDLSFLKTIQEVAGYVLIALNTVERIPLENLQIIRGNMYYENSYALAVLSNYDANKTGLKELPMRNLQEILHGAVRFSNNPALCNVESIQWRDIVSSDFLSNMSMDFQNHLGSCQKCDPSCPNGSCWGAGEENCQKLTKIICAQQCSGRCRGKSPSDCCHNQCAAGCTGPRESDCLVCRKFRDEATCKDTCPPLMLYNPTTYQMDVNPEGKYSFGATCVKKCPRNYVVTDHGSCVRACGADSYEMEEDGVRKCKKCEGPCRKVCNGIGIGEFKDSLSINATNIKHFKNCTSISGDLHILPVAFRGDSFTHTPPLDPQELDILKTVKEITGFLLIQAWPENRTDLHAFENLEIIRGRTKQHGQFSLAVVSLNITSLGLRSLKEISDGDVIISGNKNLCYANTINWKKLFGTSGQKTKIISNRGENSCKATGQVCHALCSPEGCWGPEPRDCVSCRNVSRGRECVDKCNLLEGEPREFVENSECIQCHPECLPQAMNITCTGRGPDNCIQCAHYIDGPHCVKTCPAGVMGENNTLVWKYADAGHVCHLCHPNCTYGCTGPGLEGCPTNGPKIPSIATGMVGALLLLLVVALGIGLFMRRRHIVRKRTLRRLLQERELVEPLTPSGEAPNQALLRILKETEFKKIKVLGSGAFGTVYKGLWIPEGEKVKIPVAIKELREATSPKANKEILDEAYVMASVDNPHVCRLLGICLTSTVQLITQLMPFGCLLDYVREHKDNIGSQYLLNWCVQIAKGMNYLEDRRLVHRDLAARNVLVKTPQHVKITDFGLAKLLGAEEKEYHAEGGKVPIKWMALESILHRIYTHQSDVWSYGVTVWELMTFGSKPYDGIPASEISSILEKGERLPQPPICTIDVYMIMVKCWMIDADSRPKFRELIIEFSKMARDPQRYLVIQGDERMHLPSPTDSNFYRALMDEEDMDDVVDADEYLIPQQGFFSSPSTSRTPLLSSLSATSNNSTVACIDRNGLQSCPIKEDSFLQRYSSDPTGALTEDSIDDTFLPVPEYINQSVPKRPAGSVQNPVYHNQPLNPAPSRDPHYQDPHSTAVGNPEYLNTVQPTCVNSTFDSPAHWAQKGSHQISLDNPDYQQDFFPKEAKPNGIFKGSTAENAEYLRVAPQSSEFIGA
Sequence of SRC (P12931 whole entry, looked up, species assumed): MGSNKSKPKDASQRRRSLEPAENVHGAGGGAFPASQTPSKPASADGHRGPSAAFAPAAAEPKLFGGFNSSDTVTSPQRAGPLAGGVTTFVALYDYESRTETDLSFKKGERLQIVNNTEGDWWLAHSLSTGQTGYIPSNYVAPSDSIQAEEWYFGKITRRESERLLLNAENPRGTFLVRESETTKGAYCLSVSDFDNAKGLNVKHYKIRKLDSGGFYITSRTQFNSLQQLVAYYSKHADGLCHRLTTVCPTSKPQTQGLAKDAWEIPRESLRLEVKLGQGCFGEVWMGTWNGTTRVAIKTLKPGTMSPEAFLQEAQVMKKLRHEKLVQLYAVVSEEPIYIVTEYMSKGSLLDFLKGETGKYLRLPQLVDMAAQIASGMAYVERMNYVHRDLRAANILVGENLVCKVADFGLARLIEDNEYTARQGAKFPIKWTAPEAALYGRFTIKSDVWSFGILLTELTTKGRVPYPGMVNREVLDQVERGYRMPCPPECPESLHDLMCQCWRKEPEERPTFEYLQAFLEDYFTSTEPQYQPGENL

Q: What does the source list for `CCN1CCN(c2ccc(Nc3ncc(C)c(Nc4ccc5cn[nH]c5c4)n3)cc2OC)CC1` [Compound 6i, N^2-(4-(4-ethylpiperazine-1-yl)-3-methoxyphenyl)-N^4-(1H-indazol-6-yl)-5-methylpyrimidine-2,4-diamine]?
A: IC50 ([1]; Homo sapiens, MTT, read-out: Inhibitory activity (IC50) HBVP): 550 ± 98 nM; inhibitory activity on HBVP (in words) ([1]; compared with multiple positive drugs): strong inhibitory activity; IC50 [2]: 1030 ± 80 nM; IC50 [3]: 370 ± 2 nM; IC50 [4]: 418 ± 17 nM; IC50 [5]: 438 ± 1 nM; inhibition of phosphorylation of signaling pathway proteins [6]: strong dose-dependent inhibition; inhibition of phosphorylation of signaling pathway proteins [7]: strong dose-dependent inhibition; inhibition at 0.1 µM ([8]; average, read-out: Average % inhibition FLT1): 79.7%; inhibition at 0.1 µM ([8]; replicate 1, read-out: % inhibition 1 FLT1): 78.7%; inhibition at 0.1 µM ([8]; replicate 2, read-out: % inhibition 2 FLT1): 80.7%; inhibition at 0.1 µM ([9]; average, read-out: Average % inhibition EGFR T790M): 56.9%; inhibition at 0.1 µM ([9]; replicate 1, read-out: % inhibition 1 EGFR T790M): 57%; inhibition at 0.1 µM ([9]; replicate 2, read-out: % inhibition 2 EGFR T790M): 56.8%; inhibition at 0.1 µM ([10]; average, read-out: Average % inhibition EGFR L858R/T790M/C797S): 74.5%; inhibition at 0.1 µM ([10]; replicate 1, read-out: % inhibition 1 EGFR L858R/T790M/C797S): 73.4%; inhibition at 0.1 µM ([10]; replicate 2, read-out: % inhibition 2 EGFR L858R/T790M/C797S): 75.7%; inhibition at 0.1 µM ([11]; average, read-out: Average % inhibition EGFR): 42.3%; inhibition at 0.1 µM ([11]; replicate 1, read-out: % inhibition 1 EGFR): 40.9%; inhibition at 0.1 µM ([11]; replicate 2, read-out: % inhibition 2 EGFR): 43.6%; inhibition at 0.1 µM ([12]; average, read-out: Average % inhibition BTK): 50.2%; inhibition at 0.1 µM ([12]; replicate 1, read-out: % inhibition 1 BTK): 49.1%; inhibition at 0.1 µM ([12]; replicate 2, read-out: % inhibition 2 BTK): 51.3%; inhibition at 0.1 µM ([13]; average, read-out: Average % inhibition EGFR L858R): 62.1%; inhibition at 0.1 µM ([13]; replicate 1, read-out: % inhibition 1 EGFR L858R): 61.7%; inhibition at 0.1 µM ([13]; replicate 2, read-out: % inhibition 2 EGFR L858R): 62.6%; inhibition at 0.1 µM ([14]; average, read-out: Average % inhibition SRC): 92.2%; inhibition at 0.1 µM ([14]; replicate 1, read-out: % inhibition 1 SRC): 91%; inhibition at 0.1 µM ([14]; replicate 2, read-out: % inhibition 2 SRC): 93.5%; inhibition at 0.1 µM ([15]; average, read-out: Average % inhibition FGFR1): 65.8%; inhibition at 0.1 µM ([15]; replicate 1, read-out: % inhibition 1 FGFR1): 65%; inhibition at 0.1 µM ([15]; replicate 2, read-out: % inhibition 2 FGFR1): 66.6%; inhibition at 0.1 µM ([16]; average, read-out: Average % inhibition KDR): 71.4%; inhibition at 0.1 µM ([16]; replicate 1, read-out: % inhibition 1 KDR): 71.5%; inhibition at 0.1 µM ([16]; replicate 2, read-out: % inhibition 2 KDR): 71.3%; inhibition at 0.1 µM ([17]; average, read-out: Average % inhibition FGFR3): 10.9%; inhibition at 0.1 µM ([17]; replicate 1, read-out: % inhibition 1 FGFR3): 8.1%; inhibition at 0.1 µM ([17]; replicate 2, read-out: % inhibition 2 FGFR3): 13.7%; inhibition at 0.1 µM ([18]; average, read-out: Average % inhibition EGFR/T790M/L858R): 77.2%; inhibition at 0.1 µM ([18]; replicate 1, read-out: % inhibition 1 EGFR/T790M/L858R): 76.6%; inhibition at 0.1 µM ([18]; replicate 2, read-out: % inhibition 2 EGFR/T790M/L858R): 77.9%

— patent publication US20230312529A1, “PYRIMIDINE SMALL-MOLECULE COMPOUND AND APPLICATION THEREOF” (WENZHOU MEDICAL UNIVERSITY, priority 2021, published 2023)
